Source: patent EP4772500A1, “NOVEL ISOXAZOLE COMPOUND AS TM4SF5-SPECIFIC INHIBITOR AND USE THEREOF” (Seoul National University R&DB Foundation, priority 2023, dated 2025)

System: TM4SF5-expressing cells (SNU449T7)
Experiment: Subcutaneous xenograft model of TM4SF5-expressing liver cancer cell line
Assay type: in vivo, BALB/c-Nude mice
Details: for tumor volume / liver cancer formation inhibitory effect: 5 mg/kg IP every 3 days, 8 times; for tumor volume: vs vehicle (FIG. 11c); for liver cancer formation inhibitory effect: images of recovered cancer tissues (FIG. 11b); for expressions of factors related to fibrosis, inflammation-related cytokines/chemokines (CCL2, CCL5, or CCL20), and AFP: cancer tissues vs vehicle (FIG. 11e); for phosphorylation of FAK, STAT3, c-Src, Akt and p27: liver cancer tissue extracts, three days after last injection (FIG. 11d)
Procedure: The next day, the cells were detached by treating with a T/E (Trypsin/EDTA) solution and centrifuged at 150x g for 3 minutes to obtain a pellet. Thereafter, the supernatant was removed, and the pellet was prepared by resuspension in phosphate buffered saline (PBS). For the generation of liver cancer, 10^7 cells/100 µl were injected once subcutaneously into the right thigh area of 8-week-old male BALB/c-Nude mice. At this time, the animals were anesthetized by inhalation with […] and injected. From the 7th day after the cell injection, drugs ST-2-001, ST-3-006, and ST-3-011 were each intraperitoneally injected at 5 mg/kg of body weight for a total of 8 times every 3 days. The body weight of the animals was measured every week from the day of cell injection, and the tumor volume was measured every 3 days from the 7th day after the cell injection. The tumor volume was calculated as (length×width×width)/2 (mm^3) by measuring the length and width of the tumor. Finally, on the 31st day after the cell injection, the animals were sacrificed by a standard method, and liver tissues were obtained to analyze the liver cancer tissues.
Eight-week-old male BALB/c-Nude mice (n=8, Orient, Seongnam, Republic of Korea) were allowed free access to a normal diet, and TM4SF5-non-expressing cells (SNU449Cp) and TM4SF5-expressing cells (SNU449T7) were injected once subcutaneously at a dose of 10^7 cells per mouse. Starting from the 7th day after the cell injection, drug ST-2-001, ST-3-006, or ST-3-011 was intraperitoneally injected at 5 mg/kg of body weight every 3 days for a total of 8 times. Body weight and tumor volume were measured every week, and on the 31st day after the cell injection, the mice were anesthetized by a standard method, liver tissues were obtained, and the size of the liver cancer tissues was photographed. Thereafter, the tissues were randomly divided into several sets and analyzed by immunohistochemistry, Western blot, qRT-PCR, etc.

Row | SMILES | tumor volume | liver cancer formation inhibitory effect | expressions of factors related to fibrosis, inflammation-related cytokines/chemokines (CCL2, CCL5, or CCL20), and AFP | phosphorylation of FAK, STAT3, c-Src, Akt and p27
1 | COc1ccc(-c2cc(-c3cccc(NC(C)=O)c3)no2)cc1 [ST-3-011, N-(3-(5-(4-methoxyphenyl)isoxazole-3-yl)phenyl)acetamide] | statistically significantly inhibited | relatively less than those of ST-2-001 | decreased | significantly inhibited
2 | COc1ccc(-c2cc(-c3ccc(NC(C)=O)cc3)no2)cc1 [ST-2-001, N-(4-(5-(4-methoxyphenyl)isoxazole-3-yl)phenyl)acetamide] | statistically significantly inhibited | the greatest | decreased | significantly inhibited
3 | CC(=O)Nc1ccc(-c2cc(-c3ccc(F)cc3)on2)cc1 [ST-3-006, N-(4-(5-(4-fluorophenyl)isoxazole-3-yl)phenyl)acetamide] | statistically significantly inhibited | relatively less than those of ST-2-001 | decreased | significantly inhibited
